Converted amounts (≈) assume the structure as drawn.

The subject of assay [1] is intracellular ATP synthesis of M. abscessus subsp. abscessus. In words: Whole-cell ATP measurement (BacTiter-Glo), intracellular ATP synthesis inhibition. In kind it is cell-based, Mycobacterium abscessus subsp. abscessus. The following applies: Mycobacteroides abscessus, CAMH medium, 24 h, read-out: inhibitory concentration (IC50) for intracellular ATP levels. On the procedure: Clear 96-well flat-bottom cell culture plates (Nunc) were filled with 100 μL of CAMH medium in each well. The compound was added to the first well in each row to create two times the desired highest final concentration. Subsequently, a […] twofold serial dilution was carried out starting from the first well in each row. Mab, which was grown to mid-exponential phase, was diluted to an optical density at 600 nm (OD600) of 0.1; 100 μL of the diluted culture was added to each well to create a final OD600 of 0.05 in all the wells. The plates were incubated at 37° C. on a standing incubator for 24 h. At the end of the incubation period, the samples were measured for their intrabacterial ATP content by employing the BacTiter-Glo microbial cell viability assay (Promega), which was carried out according to the manufacturer's instructions as described previously (Hotra, A. et al., Angew. Chem. Int. Ed. Engl. 2020, 59, 13295-13304). […] Luminescence was measured with Cytation 5 multi-mode reader after 10 min of incubation of the plate in the dark at room temperature. The background luminescence reading was subtracted from the luminescence readings of all the samples. The ATP amount is directly proportional to the relative luminescence units. […]
The similar IC50- and MIC50 values determined, indicate that ATP synthesis catalyzed by the F-ATP synthase is the major cause of cell growth inhibition.

Assay [2] deals with M. abscessus subsp. abscessus ATCC 19977. In words: Growth inhibition dose-response assay, broth microdilution in CAMH medium. The following applies: Mycobacteroides abscessus, ATCC19977; M. abscessus subsp. abscessus ATCC 19977, CAMH medium; concentration that inhibits 50% of growth; read-out: minimum inhibitory concentration (MIC50), growth inhibition. The assay is classed as cell-based, Mycobacterium abscessus subsp. abscessus. The procedure:
The M. abscessus subsp. abscessus ATCC 19977 strain was used. The Mab strain was maintained in CAMH broth, which was prepared according to the manufacturer's instructions. The growth inhibition dose-response assay was carried out using the broth microdilution method as described previously (Moreira, W., Aziz, D. B. & Dick T., Front. Microbiol. 2016, 7, 199). The MIC50 reported represents the concentration that inhibits 50% of growth compared with the untreated culture.
A general note: In broth dilution the organism is exposed to a series of concentrations in liquid medium.

Assay [3] concerns the target T1, Mabε (M. abscessus F-ATP synthase subunit ε) (Mycobacteroides abscessus, UniProt B1MLW3).
T1 construct: made in house; host or cells: Escherichia coli C41 (DE3)
The experiment in a line: 1H-15N-HSQC NMR titration and R2 relaxation of Mabε with compound. In kind it is binding, Mycobacterium abscessus. The settings on record: 1:5 molar ratio of Mabε and Ep1MabF1; residues V9, A10, R13, E14, G68-I72, V77, I79-A81. On the procedure:
All NMR experiments were carried out on a BrukerAvance 700-MHz spectrometer, which was equipped with a cryoprobe at 298 K.
To confirm that Mabε is Ep1MabF1's target, a ^1H-^15N-HSQC NMR titration experiment in the presence (1:5 molar ratio of Mabε and Ep1MabF1) and absence of the compound was performed. Significant changes in chemical shift were (CSP >0.15 ppm) detected for the backbone resonances of amino acids V9, A10, R13, E14, G68-172, V77 and 179-A81 (FIGS. 14C and 15). […] In addition, we measured R2 relaxation data in the presence of Ep1MabF1 and calculated the changes of R2 values between the compound-free and compound-bound protein.

Assay [4] deals with T1, Mabε (M. abscessus F-ATP synthase subunit ε). The experiment in a line: NMR titration of Mabε with MgATP. The settings on record: molar ratio of Mabε to MgATP of 1:10. In kind it is binding, Mycobacterium abscessus. The text has this: In thermophilic Bacillus PS3, Bacillus subtilis and chloroplasts, the C terminus of E is described as a mobile regulatory element, altering its conformation in response to nucleotide conditions or the ion motive force (IMF). ATP binding in E of thermophilic Bacillus PS3 and Bacillus subtilis forces the C-terminal helices into a hairpin conformation, which extends in the absence of the nucleotide, leading to an inhibited ATP hydrolysis state. Here, we used the high-quality NMR spectra of Mabε and performed NMR titration experiments in the presence of MgATP (molar ratio of Mabε to MgATP of 1:10). […] ATP binding of the M. smegmatis subunit E was also not observed in the recent cryo-EM structure of the M. smegmatis F-ATP synthase (Guo, H. et al., Nature 2021, 589, 143-147), underlining that the mycobacterial E subunits are not regulated via nucleotide binding to this rotary subunit.

T1 sequence (B1MLW3 2-121): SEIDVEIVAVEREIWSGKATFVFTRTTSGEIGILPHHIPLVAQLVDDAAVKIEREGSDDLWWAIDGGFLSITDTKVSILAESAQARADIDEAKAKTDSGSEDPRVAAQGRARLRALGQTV

With `Cc1cccc(Cc2nc3ccccc3n2CCC(=O)NCc2ccccn2)c1` [Ep1MabF1, 3-(2-(3-methylbenzyl)-1H-benzo[d]imidazol-1-yl)-N-(pyridin-2-ylmethyl)propanamide], the IC50 in assay [1] was determined as 600 ± 30 µM. Moreover, the MIC50 in assay [2] amounted to 420 ± 14 µM (≈ 161 µg/mL). Also, the “chemical shift perturbation (CSP) of Mabε backbone resonances” value in assay [3] was over 0.15 ppm.

As for `Nc1ncnc2c1ncn2[C@@H]1O[C@H](COP(=O)(O)OP(=O)([O-])OP(=O)([O-])O)[C@@H](O)[C@H]1O.[Mg+2]` [MgATP], the “chemical shift change of Mabε in 15N HSQC after addition of nucleotide (binding)” value in assay [4] is recorded as “no obvious chemical shift was observed”.
